Measurements taken from patent publication US20120101095A1, “ALKOXY-THIENOPYRIMIDINES AS TGF-BETA RECEPTOR KINASE MODULATORS” (priority 2009, published 2012).

Biological target: T1, GST-ALK5 (Homo sapiens, UniProt P36897)
T1 sequence (P36897 34-503): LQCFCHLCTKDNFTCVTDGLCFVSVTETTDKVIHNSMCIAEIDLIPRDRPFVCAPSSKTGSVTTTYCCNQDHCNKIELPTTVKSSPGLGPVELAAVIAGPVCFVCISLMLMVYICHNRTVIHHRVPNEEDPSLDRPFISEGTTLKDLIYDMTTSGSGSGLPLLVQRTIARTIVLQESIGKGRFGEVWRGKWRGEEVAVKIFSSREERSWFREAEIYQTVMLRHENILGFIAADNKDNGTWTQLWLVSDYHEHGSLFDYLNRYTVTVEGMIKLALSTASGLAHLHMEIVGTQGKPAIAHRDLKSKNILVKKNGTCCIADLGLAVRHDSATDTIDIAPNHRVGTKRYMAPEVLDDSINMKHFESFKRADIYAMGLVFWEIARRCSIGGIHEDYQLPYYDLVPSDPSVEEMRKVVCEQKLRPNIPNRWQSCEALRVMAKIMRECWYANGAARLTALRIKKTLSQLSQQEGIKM
Assay: In-vitro (enzyme) kinase assay, 384-well flashplate, GST-SMAD2 substrate
Type: biochemical
Conditions: 31.2 nM GST-ALK5, 439 nM GST-SMAD2, 3 mM ATP, 30° C., 45 min
Experimental: In-Vitro (Enzyme) Assay for Determination of the Efficacy of Inhibitors of the Inhibition of TGF-Beta-Mediated Effects
The kinase assay was carried out as 384-well flashplate assay. 31.2 nM of GST-ALK5, 439 nM of GST-SMAD2 and 3 mM of ATP (with 0.3 μCi of ^33P-ATP/well) were incubated in a total volume of 35 μl (20 mM of HEPES, 10 mM of MgCl2, 5 mM of MnCl2, 1 mM of DTT, 0.1% of BSA, pH 7.4) without or with test substance (5-10 concentrations) at 30° C. for 45 min. The reaction was stopped using 25 μl of 200 mM EDTA solution, filtered with suction at room temperature after 30 min, and the wells were washed with 3 times 100 μl of 0.9% NaCl solution. Radioactivity was measured in the TopCount. The IC50 values were calculated using RS1 (Table 1). Above and below, all temperatures were indicated in ° C.

SMILES | IC50 [nM]
CC(C)(C)OCCOc1nc(-c2cccc(C(F)(F)F)c2)c2c(N)c(C(N)=O)sc2n1 [No 12, 5-Amino-2-(2-tert-butoxy-ethoxy)-4-(3-trifluoromethyl-phenyl)-thieno[2,3-d]pyrimidine-6-carboxylic acid amide] | 500 to 1000
NC(=O)c1sc2nc(OC[C@H]3CCC(=O)N3)nc(-c3cccc(Cl)c3)c2c1N [No 77, 5-Amino-4-(3-chloro-phenyl)-2-((R)-5-oxo-pyrrolidin-2-ylmethoxy)-thieno[2,3-d]pyrimidine-6-carboxylic acid amide] | 100 to 500
NC(=O)c1sc2nc(OCCN3CCNC3=O)nc(-c3cccc(Cl)c3)c2c1N [No 61, 5-Amino-4-(3-chloro-phenyl)-2-[2-(2-oxo-imidazolidin-1-yl)-ethoxy]-thieno[2,3-d]pyrimidine-6-carboxylic acid amide] | 100 to 500
NC(=O)c1sc2nc(OCC3(CO)CC3)nc(-c3cccc(Cl)c3)c2c1N [No 65, 5-Amino-4-(3-chloro-phenyl)-2-(1-hydroxymethyl-cyclopropylmethoxy)-thieno[2,3-d]pyrimidine-6-carboxylic acid amide] | 100 to 500
NC(=O)c1sc2nc(OCC3CCC3)nc(-c3cccc(Cl)c3)c2c1N [No 9, 5-Amino-4-(3-chloro-phenyl)-2-cyclobutylmethoxy-thieno[2,3-d]pyrimidine-6-carboxylic acid amide] | 100 to 500
NC(=O)c1sc2nc(OCCC(O)CO)nc(-c3cccc(Cl)c3)c2c1N (centres unmarked) [No 62, 5-Amino-4-(3-chloro-phenyl)-2-(3,4-dihydroxy-butoxy)-thieno[2,3-d]pyrimidine-6-carboxylic acid amide] | < 100
NC(=O)c1sc2nc(OCC3CCC(CO)CC3)nc(-c3cccc(Cl)c3)c2c1N (centres unmarked) [No 67, 5-Amino-4-(3-chloro-phenyl)-2-(4-hydroxymethyl-cyclohexylmethoxy)-thieno[2,3-d]pyrimidine-6-carboxylic acid amide] | 100 to 500
NC(=O)c1sc2nc(OCC3CCCO3)nc(-c3cccc(Cl)c3)c2c1N (centres unmarked) [No 73, 5-Amino-4-(3-chloro-phenyl)-2-(tetrahydro-furan-2-ylmethoxy)-thieno[2,3-d]pyrimidine-6-carboxylic acid amide] | 100 to 500
Cc1cccc(-c2nc(OCCN3CCCC3=O)nc3sc(C(N)=O)c(N)c23)n1 [No 53, 5-Amino-4-(6-methyl-pyridin-2-yl)-2-[2-(2-oxo-pyrrolidin-1-yl)-ethoxy]-thieno[2,3-d]pyrimidine-6-carboxylic acid amide] | 100 to 500
NC(=O)c1sc2nc(O[C@H]3CNC(=O)C3)nc(-c3cccc(Cl)c3)c2c1N [No 63, 5-Amino-4-(3-chloro-phenyl)-2-((R)-5-oxo-pyrrolidin-3-yloxy)-thieno[2,3-d]pyrimidine-6-carboxylic acid amide] | 100 to 500
NC(=O)c1sc2nc(OC[C@@H]3CCCN3)nc(-c3cccc(Cl)c3)c2c1N [No 76, 5-Amino-4-(3-chloro-phenyl)-2-((S)-1-pyrrolidin-2-ylmethoxy)-thieno[2,3-d]pyrimidine-6-carboxylic acid amide] | > 1000
NC(=O)c1sc2nc(OCC3CCC3)nc(-c3cccc(C(F)(F)F)c3)c2c1N [No 10, 5-Amino-2-cyclobutylmethoxy-4-(3-trifluoromethyl-phenyl)-thieno[2,3-d]pyrimidine-6-carboxylic acid amide] | > 1000
Cc1ccc(-c2nc(OCCCO)nc3sc(C(N)=O)c(N)c23)o1 [No 22, 5-Amino-2-(3-hydroxy-propoxy)-4-(5-methyl-furan-2-yl)-thieno[2,3-d]pyrimidine-6-carboxylic acid amide] | 100 to 500
Cc1ccc(-c2nc(OCc3ccn(C)n3)nc3sc(C(N)=O)c(N)c23)o1 [No 32, 5-Amino-4-(5-methyl-furan-2-yl)-2-(1-methyl-1H-pyrazol-3-ylmethoxy)-thieno[2,3-d]pyrimidine-6-carboxylic acid amide] | 100 to 500

Other lines, results leading:

IC50 [nM] | SMILES
100 to 500 | COCCOc1nc(-c2cccc(Cl)c2)c2c(N)c(C(N)=O)sc2n1 [No 1, 5-Amino-4-(3-chloro-phenyl)-2-(2-methoxy-ethoxy)-thieno[2,3-d]pyrimidine-6-carboxylic acid amide]
< 100 | C=CCOc1nc(-c2cccc(Cl)c2)c2c(N)c(C(N)=O)sc2n1 [No 3, 2-Allyloxy-5-amino-4-(3-chloro-phenyl)-thieno[2,3-d]pyrimidine-6-carboxylic acid amide]
< 100 | NC(=O)c1sc2nc(OC[C@H]3C[C@@H]3CO)nc(-c3cccc(Cl)c3)c2c1N [No 60, 5-Amino-4-(3-chloro-phenyl)-2-((1S,2S)-2-hydroxymethyl-cyclopropylmethoxy)-thieno[2,3-d]pyrimidine-6-carboxylic acid amide]
< 100 | NC(=O)c1sc2nc(OCCN3CCOC3=O)nc(-c3cccc(Cl)c3)c2c1N [No 57, 5-Amino-4-(3-chloro-phenyl)-2-[2-(2-oxo-oxazolidin-3-yl)-ethoxy]-thieno[2,3-d]pyrimidine-6-carboxylic acid amide]
< 100 | Cn1cc(COc2nc(-c3cccc(Cl)c3)c3c(N)c(C(N)=O)sc3n2)cn1 [No 44, 5-Amino-4-(3-chloro-phenyl)-2-(1-methyl-1H-pyrazol-4-ylmethoxy)-thieno[2,3-d]pyrimidine-6-carboxylic acid amide]
< 100 | Cn1ccc(COc2nc(-c3cccc(Cl)c3)c3c(N)c(C(N)=O)sc3n2)n1 [No 46, 5-Amino-4-(3-chloro-phenyl)-2-(1-methyl-1H-pyrazol-3-ylmethoxy)-thieno[2,3-d]pyrimidine-6-carboxylic acid amide]
< 100 | NC(=O)c1sc2nc(OCC#CCO)nc(-c3cccc(Cl)c3)c2c1N [No 59, 5-Amino-4-(3-chloro-phenyl)-2-(4-hydroxy-but-2-ynyloxy)-thieno[2,3-d]pyrimidine-6-carboxylic acid amide]
100 to 500 | NC(=O)c1sc2nc(OCCCN3CCCC3=O)nc(-c3cccc(Cl)c3)c2c1N [No 54, 5-Amino-4-(3-chloro-phenyl)-2-[3-(2-oxo-pyrrolidin-1-yl)-propoxy]-thieno[2,3-d]pyrimidine-6-carboxylic acid amide]
100 to 500 | Cc1ccc(-c2nc(OCCn3cccn3)nc3sc(C(N)=O)c(N)c23)o1 [No 29, 5-Amino-4-(5-methyl-furan-2-yl)-2-(2-pyrazol-1-yl-ethoxy)-thieno[2,3-d]pyrimidine-6-carboxylic acid amide]
< 100 | Cn1cnc(COc2nc(-c3cccc(Cl)c3)c3c(N)c(C(N)=O)sc3n2)c1 [No 45, 5-Amino-4-(3-chloro-phenyl)-2-(1-methyl-1H-imidazol-4-ylmethoxy)-thieno[2,3-d]pyrimidine-6-carboxylic acid amide]
< 100 | NC(=O)c1sc2nc(OC/C=C/CO)nc(-c3cccc(Cl)c3)c2c1N [No 71, 5-Amino-4-(3-chloro-phenyl)-2-((E)-4-hydroxy-but-2-enyloxy)-thieno[2,3-d]pyrimidine-6-carboxylic acid amide]
< 100 | NC(=O)c1sc2nc(OCC3CC3)nc(-c3cccc(Cl)c3)c2c1N [No 4, 5-Amino-4-(3-chloro-phenyl)-2-cyclopropylmethoxy-thieno[2,3-d]pyrimidine-6-carboxylic acid amide]
< 100 | NC(=O)c1sc2nc(OCCCn3cccn3)nc(-c3cccc(Cl)c3)c2c1N [No 41, 5-Amino-4-(3-chloro-phenyl)-2-(3-pyrazol-1-yl-propoxy)-thieno[2,3-d]pyrimidine-6-carboxylic acid amide]
< 100 | NC(=O)c1sc2nc(OC/C=C\CO)nc(-c3cccc(Cl)c3)c2c1N [No 58, 5-Amino-4-(3-chloro-phenyl)-2-((Z)-4-hydroxy-but-2-enyloxy)-thieno[2,3-d]pyrimidine-6-carboxylic acid amide]
< 100 | Cc1cccc(-c2nc(OCc3cn(C)cn3)nc3sc(C(N)=O)c(N)c23)n1 [No 40, 5-Amino-2-(1-methyl-1H-imidazol-4-ylmethoxy)-4-(6-methyl-pyridin-2-yl)-thieno[2,3-d]pyrimidine-6-carboxylic acid amide]
< 100 | COc1nc(-c2ccc(C)o2)c2c(N)c(C(N)=O)sc2n1 [No 19, 5-Amino-2-methoxy-4-(5-methyl-furan-2-yl)-thieno[2,3-d]pyrimidine-6-carboxylic acid amide]
< 100 | NC(=O)c1sc2nc(OCc3ccn(CCO)n3)nc(-c3cccc(Cl)c3)c2c1N [No 74, 5-Amino-4-(3-chloro-phenyl)-2-[1-(2-hydroxy-ethyl)-1H-pyrazol-3-ylmethoxy]-thieno[2,3-d]pyrimidine-6-carboxylic acid amide]
< 100 | Cn1nccc1COc1nc(-c2cccc(Cl)c2)c2c(N)c(C(N)=O)sc2n1 [No 47, 5-Amino-4-(3-chloro-phenyl)-2-(2-methyl-2H-pyrazol-3-ylmethoxy)-thieno[2,3-d]pyrimidine-6-carboxylic acid amide]
